Experimental data published in ChEMBL document CHEMBL4364246, “Synthesis and biological evaluation of 5-aminoethyl benzophenanthridone derivatives as DNA topoisomerase IB inhibitors” (Eur J Med Chem, 2019).
The source made the active and inactive calls. The rule behind the calls is not given here.

Assays:
[1] = system: HCT-116; test: Growth inhibition of human HCT116 cells expressing siTOP1 incubated for 72 hrs by MTT assay; assay type: functional; details: HCT-116, 72 h
[2] = Growth inhibition of human DU145/RC0.1 cells harboring TOP1 R364H mutant incubated for 72 hrs by MTT assay; assay type: functional; details: DU-145, 72 h
[3] = target: T1, DNA topoisomerase 1 (Homo sapiens) (UniProt P11387); test: Inhibition of TOP1 in human HCT116 cells assessed as induction of DNA damage by measuring increase in gammaH2AX foci at 1 uM incubated for 3 hrs by DAPI staining based immunofluorescence microscopic method; assay type: cell-based
T1 sequence (whole entry): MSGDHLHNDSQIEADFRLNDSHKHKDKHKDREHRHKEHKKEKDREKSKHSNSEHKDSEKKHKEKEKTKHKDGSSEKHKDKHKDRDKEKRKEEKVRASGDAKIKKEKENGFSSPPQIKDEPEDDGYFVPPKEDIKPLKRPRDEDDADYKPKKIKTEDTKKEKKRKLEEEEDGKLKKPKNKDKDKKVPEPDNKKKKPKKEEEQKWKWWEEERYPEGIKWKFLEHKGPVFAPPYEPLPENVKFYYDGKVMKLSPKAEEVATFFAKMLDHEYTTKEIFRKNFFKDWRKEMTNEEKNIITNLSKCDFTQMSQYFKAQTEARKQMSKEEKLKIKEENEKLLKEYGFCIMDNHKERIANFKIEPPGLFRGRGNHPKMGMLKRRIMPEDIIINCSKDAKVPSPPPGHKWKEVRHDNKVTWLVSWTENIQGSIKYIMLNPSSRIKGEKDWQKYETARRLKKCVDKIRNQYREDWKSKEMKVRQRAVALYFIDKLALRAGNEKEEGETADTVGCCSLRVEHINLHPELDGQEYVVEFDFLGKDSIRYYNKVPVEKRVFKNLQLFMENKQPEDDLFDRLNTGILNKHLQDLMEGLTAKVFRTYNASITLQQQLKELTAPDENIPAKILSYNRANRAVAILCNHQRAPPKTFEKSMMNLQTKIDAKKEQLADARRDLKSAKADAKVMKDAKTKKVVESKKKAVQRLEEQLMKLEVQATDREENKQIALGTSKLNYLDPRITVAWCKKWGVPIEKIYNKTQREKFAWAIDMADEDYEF

[4] = system: HCT-116; test: Induction of apoptosis in human HCT116 cells assessed as viable cells at 0.5 uM incubated for 24 hrs by FITC and PI staining based flow cytometric analysis (reference value: 99.27%); assay type: functional; details: HCT-116, 24 h, read-out: Activity
[5] = system: HCT-116; test: Induction of apoptosis in human HCT116 cells assessed as viable cells at 1 uM incubated for 24 hrs by FITC and PI staining based flow cytometric analysis (reference value: 99.27%); assay type: functional; details: HCT-116, 24 h, read-out: Activity
[6] = system: HCT-116; test: Induction of apoptosis in human HCT116 cells assessed as viable cells at 2 uM incubated for 24 hrs by FITC and PI staining based flow cytometric analysis (reference value: 99.27%); assay type: functional; details: HCT-116, 24 h, read-out: Activity
[7] = system: HCT-116; test: Induction of apoptosis in human HCT116 cells assessed as increase in apoptotic cells incubated for 24 hrs by FITC and PI staining based flow cytometric analysis; assay type: functional, cell-based
[8] = Cmax in Sprague-Dawley rat at 5 mg/kg, ig measured for 0.083 to 4 hrs by LC-MS/MS analysis; assay type: ADME, organism-based; design: dose 5 mg/kg, route […]; details: in vivo, po
[9] = AUC (0 to t) in Sprague-Dawley rat at 1 mg/kg, iv measured for 0.083 to 4 hrs by LC-MS/MS analysis; assay type: ADME, organism-based; design: time 0.083-4 hr, dose 1 mg/kg, route intravenous; details: in vivo
[10] = AUC (0 to t) in Sprague-Dawley rat at 5 mg/kg, ig measured for 0.083 to 4 hrs by LC-MS/MS analysis; assay type: ADME, organism-based; design: time upper 4 hr, dose 5 mg/kg, time lower 0.083 hr, route […]; details: in vivo, po
[11] = AUC (0 to infinity) in Sprague-Dawley rat at 1 mg/kg, iv measured for 0.083 to 4 hrs by LC-MS/MS analysis; assay type: ADME, organism-based; design: dose 1 mg/kg, route intravenous, time infinity; details: in vivo
[12] = MRT (0 to infinity) in Sprague-Dawley rat at 1 mg/kg, iv measured for 0.083 to 4 hrs by LC-MS/MS analysis; details: in vivo
[13] = Half life in Sprague-Dawley rat at 1 mg/kg, iv measured for 0.083 to 4 hrs by LC-MS/MS analysis; assay type: ADME, organism-based; details: in vivo
[14] = Oral bioavailability in Sprague-Dawley rat at 5 mg/kg measured for 0.083 to 4 hrs by LC-MS/MS analysis; assay type: ADME, organism-based; details: in vivo
[15] = Acute toxicity in Kunming mouse assessed as mortality at 300 mg/kg, ip administrated as single dose measured within 5 days after drug administration; assay type: organism-based; details: in vivo, 120 h
[16] = Acute toxicity in ip dosed Kunming mouse assessed as mortality administrated for 7 days; assay type: organism-based; details: in vivo, 168 h
[17] = system: MCF7; test: Antitumour activity against human MCF7 cells xenografted in ip dosed athymic nude nu/nu mouse assessed as reduction in tumor volume administrated daily by caliper method; assay type: functional, organism-based
[18] = system: MCF7; test: Antitumour activity against human MCF7 cells xenografted in athymic nude nu/nu mouse assessed as inhibition in tumor weight at 5 mg/kg administrated daily by caliper method relative to control; assay type: functional
[19] = system: HCT-116; test: Antitumour activity against human HCT116 cells xenografted in athymic nude nu/nu mouse assessed as inhibition in tumor weight at 5 mg/kg administrated daily by caliper method relative to control; assay type: functional
[20] = system: HCT-116; test: Antitumour activity against human HCT116 cells xenografted in athymic nude nu/nu mouse assessed as inhibition in tumor weight at 20 mg/kg administrated daily by caliper method relative to control; assay type: functional
[21] = system: MCF7; test: Antitumour activity against human MCF7 cells xenografted in athymic nude nu/nu mouse assessed as inhibition in tumor weight at 20 mg/kg administrated daily by caliper method relative to control; assay type: functional
[22] = Solubility of the compound in DMSO; assay type: physicochemical
[23] = Acute toxicity in Kunming mouse assessed as mortality at 153.6 to 240 mg/kg, ip administrated as single dose measured for 7 days post drug administration; assay type: organism-based; details: in vivo, 168 h

For CNCCn1c(=O)c2cc(OC)c(OC)cc2c2ccc3cc4c(cc3c21)OCO4, the GI50 [1] was 320 nM, the GI50 [2] was 430 nM and the Activity [3] was “Active”. For the same molecule, the viability at 0.5 µM [4] was 93.3%, the viability at 1 µM [5] was 88.1% and the viability at 2 µM [6] was 69.4%. The Activity [7] was “Dose-dependent effect”, the Cmax [8] was 19 ng/mL and the AUC(0-t) [9] was 47.2 ng·h/mL. It also gave an AUCt [10] of 48.3 ng·h/mL, an AUC(0-inf) [11] of 49.5 ng·h/mL and an MRT inf [12] of 1.46 h. The half-life [13] was 72.6 min, the F [14] was 20.4% and the Activity [15] was “Toxic”. The LD50 [16] was 192 mg/kg, the inhibition [17] was “Dose-dependent effect” and the inhibition in vivo at 5 mg/kg [18] was 44%. It also gave an inhibition in vivo at 5 mg/kg [19] of 49.3%, an inhibition in vivo at 20 mg/kg [20] of 76.9% and an inhibition in vivo at 20 mg/kg [21] of 71.8%. The solubility [22] was “Soluble” and the Activity [23] was “Toxic”.
